# In patent publication US10077238B2, “Small molecule LFA-1 inhibitors” (ALLOCYTE PHARMACEUTICALS AG, priority 2014, dated 2018):
# Legend:
# Format in all cases: cell-based
# [1] = biological target: T1, LFA-1 (Homo sapiens, UniProt P20701); experiment: V well cell adhesion assay, LFA-1-mediated Jurkat cell binding to ICAM-1 (LFA-1 adhesion); details: Jurkat cells on ICAM-1/Fc; mean ±SD of ≥3 independent experiments in triplicates or single experiments in triplicates
# T1 construct: endogenous in cells; host or cells: Jurkat cells
# T1 sequence (P20701 26-1170): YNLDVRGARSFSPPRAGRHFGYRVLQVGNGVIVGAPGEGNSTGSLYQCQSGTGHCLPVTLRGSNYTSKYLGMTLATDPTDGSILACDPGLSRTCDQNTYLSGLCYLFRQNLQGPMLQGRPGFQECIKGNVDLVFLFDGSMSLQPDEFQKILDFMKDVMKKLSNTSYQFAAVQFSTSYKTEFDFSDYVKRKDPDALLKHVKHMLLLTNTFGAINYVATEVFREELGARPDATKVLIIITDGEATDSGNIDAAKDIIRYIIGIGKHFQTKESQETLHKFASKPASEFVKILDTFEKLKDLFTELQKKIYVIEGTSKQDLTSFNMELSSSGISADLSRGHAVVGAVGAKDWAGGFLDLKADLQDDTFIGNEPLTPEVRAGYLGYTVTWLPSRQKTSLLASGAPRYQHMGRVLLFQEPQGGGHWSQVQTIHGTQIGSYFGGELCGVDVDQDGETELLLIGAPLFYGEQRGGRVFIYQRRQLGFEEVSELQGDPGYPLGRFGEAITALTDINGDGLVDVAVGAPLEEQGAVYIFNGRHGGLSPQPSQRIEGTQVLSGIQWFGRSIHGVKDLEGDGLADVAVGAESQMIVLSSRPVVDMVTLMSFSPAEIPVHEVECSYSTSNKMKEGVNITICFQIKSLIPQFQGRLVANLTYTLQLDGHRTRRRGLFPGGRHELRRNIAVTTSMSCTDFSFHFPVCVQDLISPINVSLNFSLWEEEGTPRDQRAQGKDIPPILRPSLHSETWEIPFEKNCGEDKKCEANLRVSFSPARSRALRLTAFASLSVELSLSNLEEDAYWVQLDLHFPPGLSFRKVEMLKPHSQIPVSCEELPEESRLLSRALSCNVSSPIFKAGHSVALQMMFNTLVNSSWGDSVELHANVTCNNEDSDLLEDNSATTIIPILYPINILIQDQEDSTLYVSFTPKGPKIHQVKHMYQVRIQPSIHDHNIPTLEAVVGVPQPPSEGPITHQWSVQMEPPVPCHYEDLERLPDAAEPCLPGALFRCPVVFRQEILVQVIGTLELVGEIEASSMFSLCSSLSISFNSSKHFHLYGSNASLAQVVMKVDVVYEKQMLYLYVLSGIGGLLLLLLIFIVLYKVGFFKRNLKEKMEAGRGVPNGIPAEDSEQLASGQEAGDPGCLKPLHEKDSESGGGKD
# T1 sequence (P05107 23-769 partner): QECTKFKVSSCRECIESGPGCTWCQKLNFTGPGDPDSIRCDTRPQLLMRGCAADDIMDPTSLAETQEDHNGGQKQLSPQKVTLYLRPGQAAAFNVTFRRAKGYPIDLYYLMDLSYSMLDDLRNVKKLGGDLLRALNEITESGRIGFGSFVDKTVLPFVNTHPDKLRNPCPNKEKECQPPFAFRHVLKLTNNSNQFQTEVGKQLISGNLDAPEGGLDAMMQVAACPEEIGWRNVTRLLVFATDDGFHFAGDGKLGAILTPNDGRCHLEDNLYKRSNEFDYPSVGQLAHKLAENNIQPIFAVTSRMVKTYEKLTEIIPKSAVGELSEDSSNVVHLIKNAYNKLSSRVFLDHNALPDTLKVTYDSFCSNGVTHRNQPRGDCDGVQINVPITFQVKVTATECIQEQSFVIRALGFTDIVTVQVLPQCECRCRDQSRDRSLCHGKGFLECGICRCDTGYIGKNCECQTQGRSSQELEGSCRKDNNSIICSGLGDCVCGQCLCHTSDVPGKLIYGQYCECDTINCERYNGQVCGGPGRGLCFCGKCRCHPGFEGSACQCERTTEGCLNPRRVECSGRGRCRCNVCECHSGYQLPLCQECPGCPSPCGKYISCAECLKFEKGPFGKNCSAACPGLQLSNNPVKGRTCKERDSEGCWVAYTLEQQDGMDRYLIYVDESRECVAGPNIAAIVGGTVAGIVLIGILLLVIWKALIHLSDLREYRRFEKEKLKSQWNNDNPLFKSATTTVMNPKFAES
# Protocol: Cell-Based Assay to Determine the Effect of the Compounds on LFA-1-Mediated Cell Adhesion (LFA-1 Adhesion)
# Purpose of the Assay: The V well cell adhesion assay measures the ability of the compounds to interfere with LFA-1-mediated binding to ICAM-1 at cellular level. The assay has been successfully used in the past to identify and characterize small molecules LFA-1 inhibitors.
# Experimental Protocol: The adhesion assay was performed in Vbottom 96-well plates as described previously [Weitz-Schmidt 2012]. Briefly, the plates were coated with anti-human IgG mAb diluted in coating buffer (20 mM Tris containing 150 mM NaCl, pH 8) (1 μg/mL) and incubated overnight at 4° C. The plates were flicked out and blocked with blocking buffer (50 mM Tris base, 150 mM NaCl, 1.5% BSA (w/v), pH 7.2) at 37° C. for 90 min. Then human recombinant ICAM-1/Fc (R&D Systems) diluted in coating buffer (0.3 μg/mL) was added to each well. The plates were incubated at 37° C. for 90 min and washed with binding buffer (50 mM Tris base, 150 mM NaCl, 1.5% BSA (w/v), 2 mM MgCl2, 2 mM MnCl2, 5 mM D-glucose monohydrate, pH 7.2-7.4) to remove unbound ligand.
# Jurkat cells were cultured under standard conditions as recommended by the American Type Culture collection (ATCC). The cells were fluorescently labelled with BCECF-AM in PBS (1 μg/mL) at 37° C. for 20 min in the dark, centrifuged and washed with PBS. The test compounds were dissolved in DMSO at 10 mM and serially pre-diluted in DMSO (100%) to avoid precipitation, before performing final dilution steps in binding buffer.
# The labelled Jurkat cells were re-suspended in binding buffer and test compounds or solvent control were added. The DMSO concentration was kept constant in all samples (1% DMSO as final assay concentration). After 40 min at 37° C. (LFA-1 activation and compound pre-incubation step) the cell suspension (3×10^5 cells/mL in binding buffer) was pipetted up and down and transferred to the ligand-coated microtiter V well plates (30 000 cells/well). The plates were centrifuged for 4 min at room temperature (rt) at 1000 rpm (Centrifuge Eppendorf 5810 R), setting the brake off Non-adherent cells that accumulated in the center of the Vbottom were quantified using a fluorescence reader with the filter sets allowing excitation at 485 nm and quantification of emission at 535 nm. The determination of the half maximal inhibitory concentration (IC50) of the compounds was calculated using the software GraphPad Prism 6.
# [2] = biological target: T2, VLA-4 (Homo sapiens, UniProt P05556+P13612); experiment: V well cell adhesion assay, VLA-4-mediated Jurkat cell binding to VCAM-1 (VLA-4 adhesion); details: Jurkat cells on VCAM-1 Fc; single experiments run in triplicates
# T2 construct: endogenous in cells; host or cells: Jurkat cells
# T2 sequence (P13612 34-1032): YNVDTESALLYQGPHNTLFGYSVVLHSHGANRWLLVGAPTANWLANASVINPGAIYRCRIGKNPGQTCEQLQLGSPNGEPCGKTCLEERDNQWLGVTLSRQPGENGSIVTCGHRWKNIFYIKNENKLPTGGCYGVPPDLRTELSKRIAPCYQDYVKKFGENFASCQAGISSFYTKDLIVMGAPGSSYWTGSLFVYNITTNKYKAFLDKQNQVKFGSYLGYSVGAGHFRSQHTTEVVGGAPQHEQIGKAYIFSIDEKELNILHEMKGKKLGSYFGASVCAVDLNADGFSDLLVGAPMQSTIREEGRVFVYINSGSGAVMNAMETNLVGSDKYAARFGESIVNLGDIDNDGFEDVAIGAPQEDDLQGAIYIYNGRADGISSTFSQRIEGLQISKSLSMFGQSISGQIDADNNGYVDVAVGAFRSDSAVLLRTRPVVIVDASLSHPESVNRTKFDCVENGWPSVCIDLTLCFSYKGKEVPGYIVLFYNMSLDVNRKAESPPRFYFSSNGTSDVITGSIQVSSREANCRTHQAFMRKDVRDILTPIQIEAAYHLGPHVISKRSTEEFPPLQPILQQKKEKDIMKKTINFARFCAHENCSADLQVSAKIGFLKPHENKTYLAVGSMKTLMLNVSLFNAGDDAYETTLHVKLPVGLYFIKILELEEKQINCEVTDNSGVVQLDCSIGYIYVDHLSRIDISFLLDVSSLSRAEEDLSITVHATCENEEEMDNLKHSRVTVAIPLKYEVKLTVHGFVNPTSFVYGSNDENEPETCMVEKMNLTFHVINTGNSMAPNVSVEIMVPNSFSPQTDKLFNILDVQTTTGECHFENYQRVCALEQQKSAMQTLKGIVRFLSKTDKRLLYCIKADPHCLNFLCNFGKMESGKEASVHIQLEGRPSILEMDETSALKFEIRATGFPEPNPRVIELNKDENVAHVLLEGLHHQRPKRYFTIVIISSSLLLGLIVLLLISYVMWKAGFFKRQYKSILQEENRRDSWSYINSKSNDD
# T2 sequence (P05556 21-798): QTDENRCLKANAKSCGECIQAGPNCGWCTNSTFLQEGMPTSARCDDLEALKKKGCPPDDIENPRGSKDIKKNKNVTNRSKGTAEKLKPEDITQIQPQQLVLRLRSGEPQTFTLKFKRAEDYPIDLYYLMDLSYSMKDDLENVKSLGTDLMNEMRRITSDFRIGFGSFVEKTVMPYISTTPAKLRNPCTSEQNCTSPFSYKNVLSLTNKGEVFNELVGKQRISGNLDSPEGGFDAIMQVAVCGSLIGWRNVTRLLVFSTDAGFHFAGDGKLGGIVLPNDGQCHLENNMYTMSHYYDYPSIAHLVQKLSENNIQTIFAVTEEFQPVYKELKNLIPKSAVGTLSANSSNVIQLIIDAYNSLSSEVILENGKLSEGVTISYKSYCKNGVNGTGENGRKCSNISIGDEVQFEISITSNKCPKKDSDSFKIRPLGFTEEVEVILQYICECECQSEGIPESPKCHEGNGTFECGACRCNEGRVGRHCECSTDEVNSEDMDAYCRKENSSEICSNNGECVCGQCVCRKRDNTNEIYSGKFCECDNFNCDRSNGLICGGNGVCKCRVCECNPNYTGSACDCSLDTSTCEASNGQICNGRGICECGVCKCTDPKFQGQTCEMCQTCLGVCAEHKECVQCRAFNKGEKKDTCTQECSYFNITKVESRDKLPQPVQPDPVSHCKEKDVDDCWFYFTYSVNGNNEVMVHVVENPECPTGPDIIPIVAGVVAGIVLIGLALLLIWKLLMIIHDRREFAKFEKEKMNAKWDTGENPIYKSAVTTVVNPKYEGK
# Protocol: Cell-Based Assay to Determine the Selectivity of the Compounds Over the Integrin VLA-4 (VLA-4 Adhesion)
# Purpose of the Assay: This V well cell adhesion assay measures the effect of the compounds on VLA-4-mediated Jurkat cell binding to VCAM-1. The assay has been successfully used in the past to determine the selectivity of small molecule LFA-1 inhibitors over the integrin VLA-4.
# Experimental Protocol: The adhesion assay was performed as described above for the Jurkat/ICAM-1 V well adhesion assay. Briefly, plates were coated with anti-human IgG mAb and blocked with BSA as described above. Instead of ICAM-1, recombinant human VCAM-1/CD106 Fc chimera (R&D Systems) was coated onto the plates (0.3 μg/mL in coating buffer). After incubation, labelled Jurkat cells in binding buffer were transferred to the wells (20,000 cells/well). The plates were immediately centrifuged at 1000 rpm for 4 min at rt (Centrifuge Eppendorf 5810 R) setting the brakeoff. Non-adherent cells were quantified in the tip of the Vbottom well using a fluorescence reader. IC50 values of the compounds were calculated using the software GraphPad Prism 6.
# [3] = biological target: T1, LFA-1; experiment: Flow cytometry, mAb R7.1 binding to LFA-1 expressed on leukocytes; details: Jurkat cells or human PBMCs, values of independent experiments; for inhibition at 1 µM: Jurkat
# Protocol: Measurement of mAb R7.1 binding to LFA-1 (mAb R7.1 binding)
# Purpose of the Assay: This flow cytometry assay determines the effect of the compounds on the binding of the anti-LFA-1 mAb R7.1 to LFA-1 expressed on leukocytes.
# Experimental Protocol: Jurkat cells or human peripheral blood mononuclear cells (PBMCs) were resuspended in assay buffer (50 mM Tris, 150 mM NaCl, 2 mM MgCl2, 1.5% BSA and 5 mM D-glucose monohydrate, pH7.2) at 2×10^6 cells/mL and 500 μL of this cell suspension (1×10^6 cells) were transferred into polypropylene tubes containing the test compounds diluted in 500 μL assay buffer. The samples were pre-incubated at 37° C. for 40 min, and centrifuged. The supernatants were removed and FITC-labelled anti-LFA-1 mAb R7.1 and PE-labeled anti-LFA-1 mAb TS2/4 (mAb TS2/4 is not affected by alpha I allosteric inhibitor binding to LFA-1) or appropriate isotype controls were added directly to each cell pellet. The pellets were then gently pipetted up and down and incubated on ice for 30 min in the dark. After the incubation step the cells were washed twice with PBS and resuspended in PBS.
# Antibody binding was analyzed by flow cytometry. Mean fluorescence intensities (MFI) were calculated using the CellQuest software. The values are expressed as % of solvent control (solvent control=100% binding).
# [4] = biological target: T1, LFA-1; experiment: Flow cytometry, mAb MEM148 binding to LFA-1 expressed on leukocytes; details: solvent ctrl = 1, Jurkat cells or PBMCs
# Protocol: Quantification of mAb MEM148 Binding to LFA-1 (mAb MEM148 Binding)
# Purpose of the Assay: This flow cytometry assay determines the effect of the compounds on the binding of the conformation-sensitive anti-LFA-1 mAb MEM148 to LFA-1 expressed on leukocytes. The mAb MEM148 detects an epitope which becomes exposed in activated LFA-1 [Yuki 2012]
# Experimental Protocol: The assay is performed as the flow cytometry assay described above.
# Briefly, Jurkat cells or PBMCs in assay buffer (50 mM Tris, 150 mM NaCl, 1 mM CaCl2, 1 mM MgCl2, 5 mM Glucose, 1.5% BSA, pH 7.3) were pre-incubated with the compounds and appropriate positive controls for 40 min at rt. After incubation, the cell-suspension was centrifuged, the supernatant discarded and PE-labelled anti-LFA-1 mAb MEM148 was directly added to the pellets. After pipetting up and down, the tubes were incubated for 30 min. at 37° C. in the dark. The pellet was washed twice with 1 mL PBS and resuspended in PBS. Antibody binding was quantified by flow cytometry. Mean fluorescence intensities (MFI) were calculated using the CellQuest software.
# [5] = system: Jurkat cells; experiment: Toxilight BioAssay (adenylate kinase release), Jurkat; details: 24 hours exposure, mean ± SD of triplicates
# Excerpt: (§1) Assessment of Cellular Toxicity (Toxilight Assay and CellTiter-Glo Assay)
# (§2) Purpose. To detect potential cellular toxicity of present LFA-1 inhibitors two complementary assays were chosen: the Toxilight™ BioAssay (Lonza) and the CellTiter-Glo™ Luminescent Cell Viability Assay (Promega). The Toxilight assay measures cell death via the release of the cytosolic enzyme adenylate kinase into the supernatant of treated cell cultures. The CellTiter-Glo assay directly determines the key energy metabolite ATP, resulting in sensitive quantitation of the number of healthy cells in culture.
# (§3) Both assays were used with two different cell lines: the Jurkat and HepG2 cell lines. Jurkat, a human lymphocytic leukemia cell line, was utilized to assess the effect of the compounds on LFA-1 expressing cells. HepG2, a human hepatocyte cell line, was used to assess the response of liver cells where drugs are metabolized. Both assays included the use of untreated cells, and cells treated with amiodarone or 0.5% Triton X 100 as cytotoxic controls.
# (§4) Jurkat cells and HepG2 cells were cultured in RPMI 1640 containing 10% FCS or DMEM containing 10% FCS under standard conditions (recommended by ATCC). Compounds were dissolved in DMSO and serially pre-diluted in DMSO (100%) to avoid precipitation of the compounds, before final dilution steps in culture medium containing FCS were performed. The final DMSO concentration was kept constant at 0.5% in all samples.
# (§5) The test compounds and controls were exposed to the cells for 24 hours respectively at 37° C. Then adenylate kinase activity was quantified in the supernatant of the cell cultures using the ToxiLight™ reagent. In an independent set of experiments ATP content was measured by adding the CellTiter-Glo™ reagent according to manufacturer's instructions.
# [6] = system: HepG2 cells; experiment: Toxilight BioAssay (adenylate kinase release), HepG2; details: 24 hours exposure, mean ± SD of triplicates
# Excerpt: as §1, §2, §3, §4, §5
# [7] = system: Jurkat cells; experiment: CellTiter-Glo Luminescent Cell Viability Assay (ATP), Jurkat; details: 24 hours exposure, mean ± SD of triplicates
# Excerpt: as §1, §2, §3, §4, §5
# [8] = system: HepG2 cells; experiment: CellTiter-Glo Luminescent Cell Viability Assay (ATP), HepG2; details: 24 hours exposure, mean ± SD of triplicates
# Excerpt: as §1, §2, §3, §4, §5
Structure (SMILES),IC50 [1] [µM],IC50 [2] [µM],mAb R7.1 binding % inhibition at 1 μM [3] [%],inhibition at 1 µM [3] [%],"mAb MEM148 binding, binding relative to solvent ctrl at 10 μM [4]",Toxilight Jurkat % viability at 10 μM [5] [%],Toxilight HepG2 % viability at 10 μM [6] [%],CellTiter-Glo Jurkat % viability at 10 μM [7] [%],CellTiter-Glo HepG2 % viability at 10 μM [8] [%]
"C[C@]12C(=O)N(c3cc(Cl)cc(Cl)c3)C(=O)[C@H]1C2(c1ccccc1)c1ccccc1 (racemic) [4b (racemate), rac-(1S,5S)-3-(3,5-Dichlorophenyl)-1-methyl-6,6-diphenyl-3-azabicyclo[3.1.0]hexane-2,4-dione]",1.87 ± 1.27,> 10,80.0,76.9,0.974,101 ± 9.8,124 ± 29.7,96.8 ± 4.7,98.4 ± 3.8
"C[C@]12C(=O)N(c3cc(Cl)cc(Cl)c3)C(=O)[C@H]1[C@H]2c1ccc(OC(F)(F)F)cc1 (racemic) [4′g (racemate), rac-(1R,5S,6S)-3-(3,5-Dichlorophenyl)-1-methyl-6-[4-(trifluoromethoxy)phenyl]-3-azabicyclo[3.1.0]hexane-2,4-dione]",0.55 ± 0.206,> 10,94.1,93.6,0.89,116 ± 16.2,99.8 ± 26.5,111.4 ± 7.4,102.6 ± 4.5
"C[C@]12C(=O)N(c3cc(Cl)cc(Cl)c3)C(=O)[C@H]1[C@H]2c1ccc(Br)cc1 (racemic) [4′f (racemate), rac-(1R,5S,6S)-6-(4-Bromophenyl)-3-(3,5-dichloro-phenyl)-1-methyl-3-azabicyclo[3.1.0]hexane-2,4-dione]",0.715 ± 0.618,> 10,91.7,85.2,0.96,99.9 ± 24.2,115.6 ± 35.1,115.0 ± 4.8,101.6 ± 4.0
"CC12C(=O)N(c3cc(Cl)cc(Cl)c3)C(=O)C1C2(c1ccccc1)c1ccccc1 (single isomer, unassigned) [4b enantiomer A]",1.34 ± 0.678,> 10,–,87.3,no,100 ± 12.9,120 ± 40.2,92.8 ± 4.7,101.5 ± 1.9
"C[C@]12C(=O)N(c3cc(Cl)cc(Cl)c3)C(=O)[C@H]1[C@H]2c1ccc(C#N)cc1 (racemic) [4′h (racemate), rac-4-[(1R,5S,6S)-3-(3,5-Dichlorophenyl)-1-methyl-2,4-dioxo-3-azabicyclo[3.1.0]hexan-6-yl]benzonitrile]",0.147,> 10,95.8,96.8,1.00,93.5 ± 2.06,78.3 ± 35.2,112.6 ± 4.9,103.7 ± 3.2
